Patent US20100317689A1, “Prodrugs of proton pump inhibitors including the 1h-imidazo[4,5-b] pyridine moiety” (priority 2006, published 2010)

Assays:
[1] = Stability in human plasma; type: in vitro ADME
Description: (§1) Exemplary test compounds (prodrugs) of the invention can be incubated in plasma at 37° C. to test their stability and hydrolysis to give the corresponding drug TENATOPRAZOLE. The concentration of the compounds and also of the corresponding proton pump inhibitor TENATOPRAZOLE can be determined by a gradient HPLC-UV method. Although the half-lives of test compounds in plasma is expected to vary depending on their specific structure, nevertheless it is expected that in plasma the compounds of the invention are converted into the corresponding proton pump inhibitor TENATOPRAZOLE at a rate faster than the hydrolysis rate of the compound at neutral or near neutral pH. […] Therefore the compounds of the invention and especially the preferred compounds which have the chemical structure shown in Formulas 4 and 5 are good candidates to be used as prodrugs in intravenous injection and are expected to release the active proton pump inhibitor in vivo.

[2] = Stability in rat plasma at 37° C., hydrolysis to tenatoprazole; type: in vitro ADME
Description: as §1

[3] = Stability at physiological pH 7.4 without plasma or blood; type: physicochemical
Description: as §1

[4] = system: histamine and carbachol-stimulated gastric acid secretion; assay: Inhibition of gastric acid secretion of the conscious male rat, oral administration; type: in vivo; conditions: 40 μmole/kg, pylorus ligated 3 hours after administration, gastric juice collected two hours later
Description: Male rats (the Sprague-Dawley strain) are used in this assay. Salts of known benzimidazole type proton pump inhibitors, such as OMEPRAZOLE sodium salt, LANSOPRAZOLE sodium salt or TENATOPRAZOLE sodium salt (20 mg) is suspended in 10 ml of 0.1 N NaHCO3. 70 mg of each of the sodium salts of the compounds of the present invention are dissolved in 6 ml of 50% DMSO-50% 50 mM sodium phosphate buffer, pH 7.4. The doses administered to the rats are as follows (μmole per kg body weight of the rat): TENATOPRAZOLE (40 μmole/kg), a mixture of sodium 2-(4-(5-methoxy-2-((4-methoxy-3,5-dimethylpyridin-2-yl)methylsulfinyl)-1H-imidazo[4,5-b]pyridin-1-ylsulfonyl)phenoxy)acetate (Compound 1) and sodium 2-(4-(5-methoxy-2-((4-methoxy-3,5-dimethylpyridin-2-yl)methylsulfinyl)-3H-imidazo[4,5-b]pyridin-3-ylsulfonyl)phenoxy)acetate (1:1 of the isomeric mixture) 20 μmole/kg, and 40 μmole/kg. These drug solutions are orally administered. 3 hours after administration the abdomen of the rat is incised and the pylorus is ligated under light ether anethesia. […] The gastric juice is collected and acid output is quantified by titration using 0.1 N NaOH solution. […] Acid output is quantified by same method as described above, showing maximum histamine and carbachol-stimulated gastric acid secretion. Percentage inhibition is calculated from the fractional responses elicited by the test compound and a control experiment.

[5] = Plasma concentration of tenatoprazole after oral dosing in rats; type: in vivo, rat

`COc1ccc2c(n1)nc([S+]([O-])Cc1ncc(C)c(OC)c1C)n2S(=O)(=O)c1ccc(OCC(=O)[O-])cc1.[Na+]` (stereo not drawn) [Compound 1, sodium 2-(4-(5-methoxy-2-((4-methoxy-3,5-dimethylpyridin-2-yl)methylsulfinyl)-1H-imidazo[4,5-b]pyridin-1-ylsulfonyl)phenoxy)acetate] gave a half-life [1] of 1.35 min.

With “sodium 2-(4-(5-methoxy-2-((4-methoxy-3,5-dimethylpyridin-2-yl)methylsulfinyl)-1H-imidazo[4,5-b]pyridin-1-ylsulfonyl)phenoxy)acetate (Compound 1) and sodium 2-(4-(5-methoxy-2-((4-methoxy-3,5-dimethylpyridin-2-yl)methylsulfinyl)-3H-imidazo[4,5-b]pyridin-3-ylsulfonyl)phenoxy)acetate [1:1 mixture of Compound 1 and its positional isomer]” the “half-life in rat plasma” value [2] was 1.2 min, the “half-life in physiological pH 7.4 without the plasma or blood” value [3] was “greater than 24 hr” and the “inhibition of gastric acid secretion” value [4] was 83.3±13.7%. For the same molecule, the “plasma concentration of tenatoprazole” value ([5]; male Sprague-Dawley rats, oral 40 μmole/kg, 5 h postdose) was 1940 ± 1685 ng/mL and the “plasma level and half-life of TENATOPRAZOLE compared with TENATOPRAZOLE itself” value ([5]; rat, oral) was “maintains higher plasma level of TENATOPRAZOLE with longer plasma half-life”.
